In article PMC8538057, “Direct Delivery of ANA-TA9, a Peptide Capable of Aβ Hydrolysis, to the Brain by Intranasal Administration” (Pharmaceutics, 2021):
Ends that are not written are not given here.

Experiments:
[1] = Storage stability of ANA-TA9 at −40 °C (preliminary study); assay type: physicochemical; settings: storage at −40 °C (plasma samples)
Experimental: The rats were anesthetized through i.p. administration of a mixture of medetomidine (0.15 mg/kg body weight), midazolam (2 mg/kg body weight), and butorphanol (2.5 mg/kg body weight). The right femoral artery was cannulated with polyethylene tubing. ANA-TA9 was injected into the left femoral vein of 3 rats at a dose of 2 mg (200 μL of a 10 mg/mL PBS solution). Those 3 rats nasally received the same dose of ANA-TA9 (20 μL of a 100 mg/mL PBS solution) under anesthesia. For nasal administration, a micropipette was used. After i.n. administration, the animals were kept conscious in a rat cage (KN-326-III; Natsume, Tokyo, Japan) throughout the experiment after recovery from anesthesia. The PBS solution of ANA-TA9 (12 mg/mL) was infused intravenously for 10 min at a 25 µL/min flow rate. The infused dose was 3 mg/rat. At the appropriate time intervals after administration, blood samples were taken, heparinized, and immediately cooled down on ice, followed by centrifugation at 15,000 rpm for 5 min to obtain the plasma. The plasma samples were stored at −40 °C until the assay. In the preliminary study, it was confirmed that ANA-TA9 stored at −40 °C is stable for at least 2 weeks.

[2] = In vitro stability in the plasma; assay type: in vitro ADME; settings: rat plasma, 10 μL ANA-TA9 PBS solution (0.1 mg/mL or 1 mg/mL) added to 90 μL plasma, 37 °C, methanol deproteinization, LC/MS, three experiments
Experimental: After the anesthetization of rats with an i.p. application of the anesthetic mixture, the cerebrospinal fluid (CSF) was collected by cisternal puncture, followed by the collection of whole blood from the polyethylene cannula inserted into the right femoral artery. The blood was heparinized and centrifuged at 15,000 rpm for 10 min at 4 °C, and the supernatant was collected as plasma.
ANA-TA9 was dissolved in PBS at a concentration of 0.1 mg/mL or 1 mg/mL. Immediately before the incubation, 5 μL or 10 μL of the ANA-TA9 solution was added to 45 μL or 90 μL of CSF or plasma, respectively. Similarly, 10 μL of the ANA-TA9 solution was added to 90 μL of whole blood. At predetermined times after the incubation at 37 °C, the samples were cooled by placing them on ice. Methanol (1 mL) was added to the plasma and whole blood for deproteinization. The mixtures were then vortexed and centrifuged at 15,000 rpm for 5 min at 4 °C. […] The concentrations of ANA-TA9 in the plasma and whole blood were measured by LC/MS. The ANA-TA9 concentrations were measured in the CSF samples by LC/MS without any treatments.
Chromatographic separation was performed using a C18 analytical column (TSKgel ODS 100V, 3 μm, 2.0 mm × 100 mm; TOSOH, Tokyo, Japan). […] ANA-TA9 eluting from the column was detected with mass spectrometry under the positive mode. […] The calibration curves of ANA-TA9 in the plasma and the brain were determined.

[3] = Disposition and nasal absorption of ANA-TA9 in rats (plasma pharmacokinetics after i.v. bolus, i.v. infusion and i.n. administration); assay type: in vivo, Male Wistar/ST rats; settings: rat
Experimental: For i.n. administration, ANA-TA9 was dissolved in PBS at a concentration of 100 mg/mL. For intravenous (i.v.) administration, the nasal solution was diluted to 10 mg/mL with PBS. For i.v. infusion, ANA-TA9 was dissolved in PBS to a concentration of 12 mg/mL. The rats were anesthetized through i.p. administration of a mixture of medetomidine (0.15 mg/kg body weight), midazolam (2 mg/kg body weight), and butorphanol (2.5 mg/kg body weight). The right femoral artery was cannulated with polyethylene tubing. ANA-TA9 was injected into the left femoral vein of 3 rats at a dose of 2 mg (200 μL of a 10 mg/mL PBS solution). Those 3 rats nasally received the same dose of ANA-TA9 (20 μL of a 100 mg/mL PBS solution) under anesthesia. For nasal administration, a micropipette was used. After i.n. administration, the animals were kept conscious in a rat cage ([…], Tokyo, Japan) throughout the experiment after recovery from anesthesia. The PBS solution of ANA-TA9 (12 mg/mL) was infused intravenously for 10 min at a 25 μL/min flow rate. The infused dose was 3 mg/rat. At the appropriate time intervals after administration, blood samples were taken, heparinized, and immediately cooled down on ice, followed by centrifugation at 15,000 rpm for 5 min to obtain the plasma. The plasma samples were stored at -40 °C until the assay. In the preliminary study, it was confirmed that ANA-TA9 stored at -40 °C is stable for at least 2 weeks. The plasma and brain concentrations of ANA-TA9 were determined by LC/MS, LC-20A, and LCMS-2020 (SHIMADZU, Kyoto, Japan). Briefly, 100 μL of the plasma were mixed with 1000 μL of methanol. […] To the dissected brain tissue, 100 μL of ice-cold purified water were added, and the mixture was homogenized under ice-cold conditions. To the homogenate, 4000 μL of ice-cold methanol were added. […] The residues were reconstituted with 100 μL of the mobile phase of the chromatography. In the preliminary study, it was confirmed that the effect of rapid degradation of ANA-TA9 on the assay could be excluded by the treatment on the blood and brain tissues mentioned above. Chromatographic separation was performed using a C18 analytical column (TSKgel ODS 100V, 3 μm, 2.0 mm × 100 mm; TOSOH, Tokyo, Japan). The mobile phase was acetonitrile/0.1% acetic acid (10/90), and the flow rate was 0.2 mL/min. ANA-TA9 eluting from the column was detected with mass spectrometry under the positive mode. Nitrogen gas was used for nebulization at a flow rate of 1.5 L/min. Other conditions (temperature and voltage) were set as the default. The calibration curves of ANA-TA9 in the plasma and the brain were determined. […] The area under the plasma concentration-time profile (AUC) after i.v. and i.n. administration was obtained based on the linear trapezoidal rules. In the case of the i.n. application, the concentrations of the last three samples were extrapolated to estimate the area after the last sampling time. The dose was divided by the AUC to obtain the clearance. After normalization of the AUC with each dose, the bioavailability was calculated by the division of the normalized i.n. AUC by the normalized AUC after i.v. infusion.

[4] = male, Wistar/ST, in vivo, inhaled or intranasal, 2 mg
[5] = male, Wistar/ST, in vivo, iv, 2 mg
[6] = male, Wistar/ST, in vivo, iv, 3 mg/animal

time for which ANA-TA9 stored at −40 °C is stable [1]: at least 2 weeks
concentration of ANA-TA9 in the plasma at 5 min after the start of the incubation [2]: 20000 ng/mL
bioavailability ([3]; male, Wistar/ST, plasma, inhaled or intranasal, i.n. 2 mg, dose-normalized i.n. AUC divided by normalized AUC after i.v. infusion, mean ± S.E. of three experiments, read-out: F (bioavailability), i.n.): 36 ± 4.65%
Cmax [3, 4]: 863 ± 187 ng/mL
Tmax [3, 4]: 1 min
half-life [3, 5]: < 1 min
level at 0.5 min [3, 5]: 575 ± 26 ng/mL
level at 1 min [3, 5]: 111 ± 10 ng/mL
AUC [3, 6]: 215 ng·h/mL
clearance [3, 6]: 260 ± 13.8 mL/min
level at 0.25 h ([3]; male, Wistar/ST, in vivo, iv, 3 mg/rat): 172 ± 121 ng/mL
AUC, i.n. ([3]; i.n. 2 mg (20 μL of 100 mg/mL PBS solution), plasma, trapezoidal with extrapolation, mean ± S.E. of three experiments): 3.10 ± 0.782 µg·min/mL
plasma concentration at 20 min (after end of i.v. infusion) ([3]; in vivo, iv): below the limit of detection
Sequence: SKGQAYRMI [ANA-TA9]
